In US5624923A, “Tricyclic diazepine vasopressin antagonists and oxytocin antagonists” (priority 1995, dated 1997):
“And” between values parts separate entries of the source, which are not always exact repeats. Equal values may be shown once. Blank lines part the entries; values can stand above or below the compound they belong to.

Tests used:
oxytocin receptors = molecular target: T1, oxytocin receptors (Rattus norvegicus, UniProt P70536); test: Oxytocin Receptor Binding; conditions: for IC50: 1.0 nM [3H]oxytocin
T1 construct: The uteri are dissected out, cleaned of fat and connective tissues; from tissue; host or cells: uterus of DES-treated female Sprague-Dawley rats
T1 sequence (P70536 1-388): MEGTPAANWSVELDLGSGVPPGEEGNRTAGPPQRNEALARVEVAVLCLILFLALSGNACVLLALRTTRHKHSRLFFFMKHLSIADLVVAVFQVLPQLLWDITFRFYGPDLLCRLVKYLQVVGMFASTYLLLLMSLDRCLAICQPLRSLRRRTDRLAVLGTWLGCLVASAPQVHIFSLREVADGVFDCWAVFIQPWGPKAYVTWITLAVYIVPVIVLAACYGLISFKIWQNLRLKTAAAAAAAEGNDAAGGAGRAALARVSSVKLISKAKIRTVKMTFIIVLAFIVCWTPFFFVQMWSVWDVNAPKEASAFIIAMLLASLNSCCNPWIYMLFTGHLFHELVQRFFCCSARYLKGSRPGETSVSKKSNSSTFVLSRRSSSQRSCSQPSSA
Procedure: Oxytocin Receptor Binding
Female Sprague-Dawley rats weighing approximately 200-250 g are injected intramuscularly (i.m.) with 0.3 mg/kg of body weight of diethylstilbestrol (DES). The rats are sacrificed 18 hours later under pentobarbital anesthesia. The uteri are dissected out, cleaned of fat and connective tissues and rinsed in 50 ml of normal saline. The tissue pooled from six rats is homogenized in 50 ml of […] Tris.HCl, containing 0.5 mM dithiothreitol and 1.0 mM EDTA, adjusted to pH 7.4, using a polytron at setting 6 with three passes of 10 sec each. The homogenate is passed through two (2) layers of cheesecloth and the filtrate centrifuged at 1000× g for 10 min. The clear supernatant is removed and recentrifuged at 165,000× g for 30 min. The resulting pellet containing the oxytocin receptors is resuspended in 50.0 mM Tris.HCl containing 5.0 mM MgCl2 at pH 7.4, to give a protein concentration of 2.5 mg/ml of tissue suspension. This preparation is used in subsequent binding assays with [^3 H]Oxytocin.
Binding of 3,5-[^3 H]Oxytocin ([^3 H]OT) to its receptors is done in microtiter plates using [^3 H]OT, at various concentrations, in an assay buffer of 50.0 mM Tris.HCl, pH 7.4 and containing 5.0 mM MgCl2, and a mixture of protease inhibitors: BSA, 0.1 mg; aprotinin, 1.0 mg; 1,10-phenanthroline, 2.0 mg; […], 10.0 mg; and PMSF, 0.3 mg per 100 ml of buffer solution. Non-specific binding is determined in the presence of 1.0 uM unlabeled OT. The binding reaction is terminated after 60 min , at 22° C. by rapid filtration through glass fiber filters using a Brandel® cell harvester (Biomedical Research and Development Laboratories, Inc., Gaithersburg, Md.). Competition experiments are conducted at equilibrium using 1.0 nM [^3 H]OT and varying the concentration of the displacing agents. The concentrations of agent displacing 50% of [^3 H]OT at its sites (IC50) are calculated by a computer assisted LUNDON-2 program (LUNDON SOFTWARE INC., Ohio, USA).

Vasopressin V1 = Vasopressin V1 Antagonist Activity in Conscious Rats (vasopressin vasopressor response); format: in vivo, rat; set-up: Average Change: unit not given here; conditions: SHR
Procedure: Vasopressin V1 Antagonist Activity in Conscious Rats
Conscious rats are restrained in a supine position with elastic tape. The area at the base of the tail is locally anesthetized by subcutaneous infiltration with 2% procaine (0.2 ml). Using aseptic technique the ventral caudal tail artery is isolated and a cannula made of PE 10 and 20 (heat-fused) tubing is passed into the lower abdominal aorta. The cannula is secured, heparinized (1000 i.u./cc), sealed and the wound closed with one or two stitches of Dexon 4-0. The caudal vein is also cannulated in the same manner for intravenous drug administration. The duration of the surgery is approximately 5 minutes. Additional local anesthesia (2% procaine or lidocaine) is provided as needed.
The animals are placed in plastic restraining cages in an upright position. The cannula is attached to a Statham P23Db pressure transducer and pulsatile blood pressure is recorded. […] The vasopressin injections are repeated 30,60,90,120,180,240 and 300 min. later. Percentage of antagonism by the compound is calculated using the pre-drug vasopressin vasopressor response as 100%.

Vasopressin V2 = Vasopressin V2 Antagonist Activity in Conscious Hydrated Rats; format: in vivo, rat; conditions: AVP 0.4 μg/kg i.p.
Procedure: Vasopressin V2 Antagonist Activity in Conscious Hydrated Rats
Conscious hydrated rats are treated with compounds under study from 0.1 to 100 mg/kg orally or vehicle. Two to four rats are used for each compound. One hour later, arginine vasopressin (AVP, antidiuretic hormore, ADH) dissolved in peanut oil is administered at 0.4 μg/kg intraperitoneally. Two rats in each test would not receive arginine vasopressin but only the vehicle (peanut oil) to serve as water-loading control. Twenty minutes later each rat is given 30 mL/kg of deionized water orally by gavage and is placed individually in a metabolic cage equipped with a funnel and a graduated glass cylinder to collect urine for four hours. Urine volume is measured and osmolality analyzed by use of a Fiske One-Ten osmometer (Fiske Assoc., Norwood, Mass., USA). Urinary sodium, potassium, and chloride are analyzed by use of ion-specific electrodes in a Beckman E3 (Electrolyte 3) Analyzer.

[1] = 10 mg/kg i.v., VAS 0.01 i.u./kg, 60 min
[2] = 10 mg/kg i.v., VAS 0.01 i.u./kg, 90 min
[3] = 10 mg/kg i.v., VAS 0.01 i.u./kg, 120 min
[4] = 10 mg/kg i.v., VAS 0.01 i.u./kg, 180 min
[5] = 10 mg/kg i.v., VAS 0.01 i.u./kg, 240 min
[6] = 10 mg/kg i.v., VAS 0.01 i.u./kg, 300 min
[7] = 10 mg/kg i.v., VAS 0.02 i.u./kg, 60 min
[8] = 10 mg/kg i.v., VAS 0.02 i.u./kg, 90 min
[9] = 10 mg/kg i.v., VAS 0.02 i.u./kg, 120 min
[10] = 10 mg/kg i.v., VAS 0.02 i.u./kg, 180 min
[11] = 10 mg/kg i.v., VAS 0.02 i.u./kg, 240 min
[12] = 10 mg/kg i.v., VAS 0.02 i.u./kg, 300 min
[13] = 20 mg/kg i.v., VAS 0.01 i.u./kg, 60 min
[14] = 20 mg/kg i.v., VAS 0.01 i.u./kg, 90 min
[15] = 20 mg/kg i.v., VAS 0.01 i.u./kg, 120 min
[16] = 20 mg/kg i.v., VAS 0.01 i.u./kg, 180 min
[17] = 20 mg/kg i.v., VAS 0.01 i.u./kg, 240 min
[18] = 20 mg/kg i.v., VAS 0.01 i.u./kg, 300 min
[19] = 20 mg/kg i.v., VAS 0.02 i.u./kg, 60 min
[20] = 20 mg/kg i.v., VAS 0.02 i.u./kg, 90 min
[21] = 20 mg/kg i.v., VAS 0.02 i.u./kg, 120 min
[22] = 20 mg/kg i.v., VAS 0.02 i.u./kg, 180 min
[23] = 20 mg/kg i.v., VAS 0.02 i.u./kg, 240 min
[24] = 20 mg/kg i.v., VAS 0.02 i.u./kg, 300 min

IC50 (oxytocin receptors): 2.9 µM
inhibition at 10 µM (oxytocin receptors; [3H]oxytocin): 75%
SMILES: COc1cc(C(=O)N2Cc3cccn3Cc3ccccc32)ccc1[N+](=O)[O-] [Example 455, 10,11-Dihydro-10-(3-methoxy-4-nitrobenzoyl)-5H-pyrrolo[2,1-c][1,4]benzodiazepine]

inhibition at 1 µM (oxytocin receptors; dose 1 μM, [3H]oxytocin): 22%
SMILES: O=C(Nc1ccc(C(=O)O)c(Cl)c1)c1cccc(F)c1 [Example 441, 4-[[3-fluorobenzoyl]amino]-2-chloro-benzoic acid]

SMILES: Cc1cc(C(=O)N2Cc3cccn3Cc3ccccc32)ccc1N [Example 95, 10,11-Dihydro-10-(4-amino-3-methylbenzoyl)-5H-pyrrolo[2,1-c][1,4]benzodiazepine]
% Inhibition (Vasopressin V1; 10 mg/kg i.v., VAS 0.01 i.u./kg, 30 min): 35% and 65%
% Inhibition (Vasopressin V1; [1]): 78%
Average Change (Vasopressin V1; [1]): 7
% Inhibition (Vasopressin V1; [2]): 58%
Average Change (Vasopressin V1; [2]): 13.5
% Inhibition (Vasopressin V1; [3]): 58%
Average Change (Vasopressin V1; [3]): 13.5
% Inhibition (Vasopressin V1; [4]): 52%
Average Change (Vasopressin V1; [4]): 15.5
% Inhibition (Vasopressin V1; [5]): 43%
Average Change (Vasopressin V1; [5]): 18.5
% Inhibition (Vasopressin V1; [6]): 52%
Average Change (Vasopressin V1; [6]): 15.5
% Inhibition (Vasopressin V1; [7]): 78%
Average Change (Vasopressin V1; [7]): 12.5
% Inhibition (Vasopressin V1; [8]): 72%
Average Change (Vasopressin V1; [8]): 16
% Inhibition (Vasopressin V1; [9]): 70%
Average Change (Vasopressin V1; [9]): 17.5
% Inhibition (Vasopressin V1; [10]): 72%
Average Change (Vasopressin V1; [10]): 16
% Inhibition (Vasopressin V1; [11]): 31%
Average Change (Vasopressin V1; [11]): 39.5
% Inhibition (Vasopressin V1; [12]): 27%
Average Change (Vasopressin V1; [12]): 42
% Inhibition (Vasopressin V1; [13]): 67%
Average Change (Vasopressin V1; [13]): 15
% Inhibition (Vasopressin V1; [14]): 70%
Average Change (Vasopressin V1; [14]): 13.5
% Inhibition (Vasopressin V1; [15]): 47%
Average Change (Vasopressin V1; [15]): 24
% Inhibition (Vasopressin V1; [16]): 48%
Average Change (Vasopressin V1; [16]): 23.5
% Inhibition (Vasopressin V1; [17]): 53%
Average Change (Vasopressin V1; [17]): 21.5
% Inhibition (Vasopressin V1; [18]): 46%
Average Change (Vasopressin V1; [18]): 24.5
% Inhibition (Vasopressin V1; [19]): 68%
Average Change (Vasopressin V1; [19]): 19.5
% Inhibition (Vasopressin V1; [20]): 61%
Average Change (Vasopressin V1; [20]): 24
% Inhibition (Vasopressin V1; [21]): 53%
Average Change (Vasopressin V1; [21]): 28.5
% Inhibition (Vasopressin V1; [22]): 44%
Average Change (Vasopressin V1; [22]): 34
% Inhibition (Vasopressin V1; [23]): 44%
Average Change (Vasopressin V1; [23]): 34
% Inhibition (Vasopressin V1; [24]): 39%
Average Change (Vasopressin V1; [24]): 37.5

IC50 (oxytocin receptors): 7.4 µM
inhibition at 10 µM (oxytocin receptors; [3H]oxytocin): 44.6%
SMILES: Nc1ccc(C(=O)N2Cc3cccn3Cc3ccccc32)c(Cl)c1 [Example 416, 10,11-Dihydro-10-(2-chloro-4-aminobenzoyl)-5H-pyrrolo[2,1-c][1,4]benzodiazepine]

inhibition at 10 µM (oxytocin receptors; [3H]oxytocin): 36%
SMILES: O=C(c1ccc([N+](=O)[O-])cc1Cl)N1Cc2ccc(C(=O)C(F)(F)F)n2Cc2ccccc21 [Example 452, 10,11-dihydro-10-(2-chloro-4-nitro-benzoyl)[3-(trifluoroacetyl)]-5H-pyrrolo[2,1-c][1,4]benzodiazepine]

inhibition at 10 µM (oxytocin receptors; [3H]oxytocin): 32%
SMILES: Cc1ccc(F)cc1C(=O)Nc1ccc(C(=O)O)cc1Cl [Example 436, 4-[(5-fluoro-2-methylbenzoyl)amino]-3-chlorobenzoic acid]

IC50 (oxytocin receptors): 3.1 µM
inhibition at 10 µM (oxytocin receptors; [3H]oxytocin): 77%
SMILES: COc1cc(C(=O)N2Cc3cccn3Cc3ccccc32)ccc1N [Example 460, 10,11-Dihydro-10-(4-amino-3-methoxybenzoyl)-5H-pyrrolo[2,1-c][1,4]benzodiazepine]

inhibition at 10 µM (oxytocin receptors; [3H]oxytocin): 43%
SMILES: O=C(c1ccc([N+](=O)[O-])cc1)N1Cc2ccc(C(=O)C(F)(F)F)n2Cc2ccccc21 [Example 451, 10,11-Dihydro-10-(4-nitrobenzoyl)-[3-(trifluoroacetyl)]-5H-pyrrolo[2,1-c][1,4]benzodiazepine]

inhibition at 10 µM (oxytocin receptors; [3H]oxytocin): 10%
SMILES: Cc1c(F)cccc1C(=O)Nc1ccc(C(=O)O)cc1Cl [Example 435, 4-[(3-fluoro-2-methylbenzoyl)amino]-3-chlorobenzoic acid]

inhibition at 10 µM (oxytocin receptors; [3H]oxytocin): 70%
SMILES: CCOC(=O)c1ccc2n1Cc1ccccc1N(C(=O)c1ccc([N+](=O)[O-])cc1Cl)C2 [Example 443, Ethyl 10,11-dihydro-10-(2-chloro-4-nitrobenzoyl)-5H-pyrrolo[2,1-c][1,4]benzodiazepine-3-carboxylate]

inhibition at 10 µM (oxytocin receptors; [3H]oxytocin): 16%
SMILES: Cc1c(F)cccc1C(=O)Nc1ccc(C(=O)O)c(Cl)c1 [Example 420]

inhibition at 10 µM (oxytocin receptors; [3H]oxytocin): 39%
SMILES: Cc1c(F)cccc1C(=O)Nc1ccc(C(=O)O)cc1 [Example 418, 4-[(3-fluoro-2-methylbenzoyl)amino]-benzoic acid]

inhibition at 10 µM (oxytocin receptors; [3H]oxytocin): 21%
SMILES: CCOC(=O)c1ccc2n1Cc1ccccc1N(C(=O)c1ccc([N+](=O)[O-])c(C)c1)C2 [Example 444, ethyl 10,11-dihydro-10-(3-methyl-4-nitrobenzoyl)-5H-pyrrolo[2,1-c][1,4]-benzodiazepine-3-carboxylate]

SMILES: O=C(Nc1ccc(C(=O)N2Cc3cccn3-c3ccccc32)cc1)c1cc(Cl)ccc1Cl [Example 16, N-[4-(pyrrolo[1,2-a]quinoxalin-5(4H)-ylcarbonyl)phenyl]-2,5-dichloro-benzamide]
Osmolality (Vasopressin V2; 10 mg/kg orally): 1242 mOsm/kg
Urine Volume (Vasopressin V2; 10 mg/kg orally): 5.5 ml/4 hrs
Osmolality (Vasopressin V2; 30 mg/kg orally): 1295 mOsm/kg
Urine Volume (Vasopressin V2; 30 mg/kg orally): 8 ml/4 hrs
